Data reported in PMC5995905, “Confirmation of high-throughput screening data and novel mechanistic insights into VDR-xenobiotic interactions by orthogonal assays” (Scientific Reports, 2018).
pIC50: −log10 of the molar value. Several values for one entry are separate records, joined by “and”; a condition that tells them apart may be missing. Equal entries are not always repeated. Entries after “also recorded” stand apart in the source; their conditions may differ. Where two headings read alike, the source gives them in different places. Values belong to the compound of their own block, whether it stands above or below them.

Tests used:
VDR:NCoR = biological target: T1, VDR:NCoR (Homo sapiens, UniProt P11473); assay: Mammalian 2-hybrid assay, recruitment of corepressor NCoR by VDR, Cos7 cells
T1 sequence (P11473 1-427): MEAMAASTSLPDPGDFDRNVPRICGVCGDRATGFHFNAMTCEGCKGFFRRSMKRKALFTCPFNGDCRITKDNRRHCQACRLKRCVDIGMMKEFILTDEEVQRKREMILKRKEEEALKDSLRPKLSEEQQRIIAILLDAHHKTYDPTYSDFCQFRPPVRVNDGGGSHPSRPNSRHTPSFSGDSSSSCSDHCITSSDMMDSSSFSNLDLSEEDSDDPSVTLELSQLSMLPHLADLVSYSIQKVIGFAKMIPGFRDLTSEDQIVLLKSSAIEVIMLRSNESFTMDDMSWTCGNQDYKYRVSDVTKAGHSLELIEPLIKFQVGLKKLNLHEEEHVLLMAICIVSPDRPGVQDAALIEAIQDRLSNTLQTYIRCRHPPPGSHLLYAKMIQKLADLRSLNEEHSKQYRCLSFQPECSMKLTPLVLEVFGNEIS

human VDR [1] = biological target: T2, human VDR (Homo sapiens, UniProt P11473); assay: Transient transactivation assay (CYP24-Luc), antagonist mode with 3 nM 1,25D3, HEK293T cells; format: cell-based
T2 sequence (P11473 1-427): T1 sequence (P11473 1-427)

human VDR [2] = biological target: T2, human VDR; assay: Transient transactivation assay (CYP24-Luc), agonist mode, HEK293T cells; conditions: for Derived Efficacy (fold induction): top asymptote of Hill or Gain-Loss model, maximum response
[3] = biological target: T3, VDR:RXR, VDR:SRC-1 and VDR:NCoR interactions (Homo sapiens, UniProt P11473); assay: Mammalian 2-hybrid assay, summary in words of VDR coregulator interactions; format: cell-based
T3 sequence (P11473 1-427): T1 sequence (P11473 1-427)

[4] = biological target: human VDR ligand-binding domain; parameters: method as in PMID 21543282; conditions: agonist mode, cited from earlier work; for AC50: Tox21 qHTS data set, * = range of values
human VDR [5] = biological target: T2, human VDR
VDR:RXRα = biological target: T4, VDR:RXRα (Homo sapiens, UniProt P11473); assay: Mammalian 2-hybrid assay, recruitment of RXRα by VDR, Cos7 cells
T4 sequence (P11473 1-427): T1 sequence (P11473 1-427)

VDR:SRC-1 = VDR:SRC-1 (Homo sapiens, UniProt P11473); assay: Mammalian 2-hybrid assay, recruitment of coactivator SRC-1 by VDR, Cos7 cells
[6] = biological target: human VDR ligand-binding domain; parameters: method as in PMID 21543282; conditions: read-out: Tox21 IC 50; cited from earlier work
[7] = Derived IC 50 (Transient transactivation assay)
[8] = read-out: Derived AC50 (Transient transactivation assay)

Compound: O=C1C(Cl)=C(Cl)C(=O)c2ccccc21 [Dichlone]
- Fold Change (pMNCoR + EpSG5) (VDR:NCoR): 1.1
- AC50 (human VDR [1]): 19.8 µM
- Activity (human VDR [1]): moderate to marked synergistic activity; also recorded: Active
- Derived Efficacy (fold inhibition) (human VDR [1]): 86.9798 fold inhibition
- pIC50 (human VDR [1]; [7]): 6.62 and 6.61
- Activity (human VDR [2]): very weak agonist activity

Compound: O=S(=O)(O)c1ccccc1C=Cc1ccc(-c2ccc(C=Cc3ccccc3S(=O)(=O)O)cc2)cc1.[Na].[Na] [Disodium 4,4′-bis(2-sulfostyryl) biphenyl]
- pattern of VDR:coregulator interaction facilitated by the ligand [3]: did not facilitate VDR:RXR or VDR:SRC-1 interactions under any condition
- AC50 [4]: 18 µM
- Activity (human VDR [2]): Active
- AC50 (human VDR [2]; [8]): 0.394 µM
- Derived Efficacy (fold induction) (human VDR [5]): 9.4578 fold induction

Compound: CN1CCC(Nc2ncc3ncnc(Nc4ccc(F)c(Cl)c4)c3n2)CC1.Cl.Cl [Falnidamol dihydrochloride]
- pattern of VDR:coregulator interaction facilitated by the ligand [3]: induced recruitment of RXR both in the presence and absence of co-transfected SRC-1
- AC50 [4]: 3.3 µM
- activity in the Tox21 qHTS data set [4]: active
- Activity (human VDR [2]): consistently failed to exhibit any concentration response interactions; also recorded: Inactive
- Derived Efficacy (fold induction) (human VDR [5]): 9.9267 fold induction
- % Induction (pMRXRα + EpSG5) (VDR:RXRα): 5.3
- % Induction (pMRXRα + SRC- 1) (VDR:RXRα): 3.7

Compound: O=C(NC(=O)c1c(F)cccc1F)Nc1ccc(OC(F)(F)C(F)OC(F)(F)F)c(Cl)c1 (stereo not shown) [Novaluron]
- pattern of VDR:coregulator interaction facilitated by the ligand [3]: Interaction between VDR:SRC-1 only in the absence of RXR
- AC50 [4]: 23.4 µM
- Activity (human VDR [2]): Active
- AC50 (human VDR [2]; [8]): 37.4 µM
- Derived Efficacy (fold induction) (human VDR [5]): 16.3718 fold induction
- % Induction, pMSRC-1NR + EpSG5 (VDR:SRC-1): 0.9

Compound: C[C@@H]1O[C@@H](O[C@@H]2C=C3CC[C@@H]4[C@H](CC[C@]5(C)[C@@H](c6ccc(=O)oc6)CC[C@]45O)[C@@]3(C)CC2)[C@H](O)[C@H](O)[C@H]1O [Proscillaridin, reference compound]
- pIC50 [6]: 7.36
- Fold Change (pMNCoR + EpSG5) (VDR:NCoR): 2.8
- pattern of change of 1,25D3 induced VDR:coregulator interaction [3]: selectively inhibited VDR:SRC-1 interactions only in the presence of full length wild type RXR; also recorded: enhanced the interaction between VDR:RXR only in the presence of co transfected SRC-1
- Activity (human VDR [1]): Active
- Derived Efficacy (fold inhibition) (human VDR [1]): 14.1669 fold inhibition
- pIC50 (human VDR [1]; [7]): 5.72

Compound: CN(C)C(=S)SSC(=S)N(C)C [Thiram]
- Fold Change (pMNCoR + EpSG5) (VDR:NCoR): 1.7
- Activity (human VDR [1]; antagonists, transient transactivation assay in the presence of 3 nM 1,25D3): Active
- AC50 (human VDR [1]; experimental AC50 as listed in Fig 4a, antagonists, read-out: AC50): 0.479 µM
- pIC50 (human VDR [1]; inhibition of 3 nM 1,25D3-induced response, HEK293T cells, unit given in Fig 3 legend, read-out: Derived IC 50 (Transient transactivation assay)): 6.38 and 6.37
- Derived Efficacy (fold inhibition) (human VDR [1]; top asymptote of Hill or Gain-Loss model, maximum response): 76.1807 fold inhibition

- AC50 (human VDR [2]; AC50 (μM), experimental AC50 as listed in Fig 4a, agonists): 12.2 µM
- AC50 (human VDR [2]; Derived AC50 (Transient transactivation assay), agonist mode, HEK293T cells, CYP24A1-Luc): 3.07 µM
- Activity (human VDR [2]; agonists, orthogonal transient transactivation assay, HEK293T cells): Active
- Derived Efficacy (fold induction) (human VDR [2]): 14.7020 fold induction
- % Induction, pMSRC-1NR + EpSG5 (VDR:SRC-1; agonists, -RXR (empty pSG5), percentage of vitamin D3, conc. in Fig 5: ergocalciferol 60, lithocholic acid 50, calcipotriol 0.05, ethylphenol compound 40, 9 aminoacridine 50, tamoxifen citrate 20 μM): 0.9%
Compound: Nc1nc(N)c2nc(-c3ccccc3)c(N)nc2n1 [Triamterene, reference compound]
- AC50 [4]: 5.3 to 42.1 µM

Compound: Nc1nc(N)c2nc(CNc3ccc(C(=O)N[C@@H](CCC(=O)O)C(=O)O)cc3)cnc2n1 [reference compound]
- pattern of VDR:coregulator interaction facilitated by the ligand [3]: did not facilitate VDR:RXR or VDR:SRC-1 interactions under any condition
- AC50 [4]: 11.8 µM
- AC50 (human VDR [2]; Derived AC50 (Transient transactivation assay)): 33.7 µM
- Derived Efficacy (fold induction) (human VDR [2]): 16.3718 fold induction
- Activity (human VDR [5]): Active

Compound: Cadmium acetate dihydrate
- pIC50 [6]: 6.57
- pattern of change of 1,25D3 induced VDR:coregulator interaction [3]: enhanced the interaction between VDR:RXR only in the presence of co transfected SRC-1
- Activity (human VDR [1]): Active
- Derived Efficacy (fold inhibition) (human VDR [1]): 20.5478 fold inhibition
- % Induction (pMSRC-1NR + RXRα) (VDR:SRC-1): 46.7
- % Induction, pMSRC-1NR + EpSG5 (VDR:SRC-1): 51.7
- % Induction (pMRXRα + SRC- 1) (VDR:RXRα): 165.6

Compound: Cadmium reference solution
- Fold Change (pMNCoR + EpSG5) (VDR:NCoR): 0.7
- Activity (human VDR [1]): Active
- Derived Efficacy (fold inhibition) (human VDR [1]): 76.1807 fold inhibition
- pIC50 (human VDR [1]; read-out: Derived IC 50 (Transient transactivation assay)): 6.70
- % Induction (pMSRC-1NR + RXRα) (VDR:SRC-1): 0.9
- % Induction, pMSRC-1NR + EpSG5 (VDR:SRC-1): 1.3
- % Induction (pMRXRα + EpSG5) (VDR:RXRα): 23.7
- % Induction (pMRXRα + SRC- 1) (VDR:RXRα): 16
